One assay concerns GSK-3β. The experiment in a line: Western blot of serine-9-phosphorylated GSK-3β (FIG. 5). The class given is cell-based, rat. As to conditions: compound alone, 2 hours; CRF 10 nM, LY 294002 75 μM, FSK 30 μM. From the text: It was thought that CRF receptor agonists might interact with the PI 3-kinase signalling pathway and exert their neuroprotective effect by phosphorylating and inhibiting the protein GSK-3β,which is pro-apoptotic (M. Pap and G. M. Cooper, J. Biol. Chem., 273(32), 19929-19932, 1998; and M. Hetman et al. J. Neurosci., 1st Apr. 2000, 20(7), 2567-2574; discussed hereinabove). In order to confirm this, the level of GSK-3β phosphorylated at serine-9 (e.g. see D. A. E. Cross, Nature, 378, 785-789, 1995) in control cultures of cerebellar granule neurones was measured using Western blots, and compared to the level of phospho-GSK-3β in the presence of CRF as a model CRF receptor agonist and/or in the presence of the PI 3-kinase inhibitor LY 294002. In order to determine whether elevation of cAMP was involved in any effect, the level of phospho-GSK-3β in cultures in the presence of the known cAMP-elevating agent forskolin (FSK, obtainable e.g. from Calbiochem.) with or without LY 294002 present was also measured. The forskolin acts as a benchmark for cAMP-related effects.
The method used was as follows. […]
Phosphorylation of GSK-3β was detected using an antibody to serine-9-phosphorylated GSK-3β (anti-phospho-GSK-3β (Ser9)) available as catalogue no. […]
For orientation: In western blotting, separated proteins are transferred to a membrane and probed.

A further assay concerns the target PI 3-kinase. As to conditions: cited from earlier work.
For assay [1], the system named is spontaneous hypertensive rats (SHR). The experiment in a line: Distal middle cerebral artery occlusion (MCAO), icv dosing (FIG. 7). The class given is in vivo. As to conditions: 10 μg/rat icv, 15 min and 2 hours post MCAO; 24 h permanent MCAO. Here is the method:
The animal protocols are as follows.
Focal ischemia experiments were performed on male spontaneously hypertensive rats (SHR; Taconic Farms, Germantown, N.Y., US) weight range 280-340 g. Body temperature was maintained at 37° C. during all surgical procedures and during recovery from anesthesia (i.e., until normal locomotor activity returned). Animals were anesthetized with pentobarbital (65 mg/kg, i.p.) and underwent permanent, right middle cerebral artery occlusion (MCAO) for 24 h as described previously (F. C. Barone et al., Neuroscience & Biobehavioral Reviews, 16 (1992) 219-33, and F. C. Barone et al., Stroke, 29 (1998) 1937-50). Body temperature was monitored throughout the surgical procedure by a rectal thermometer, and the animals maintained normothermic (37±0.5° C.) via a heating blanket controlled by the thermometer. A needle temperature probe was also inserted into the left temporalis muscle to give an indirect measurement of brain temperature. Actual core and temporalis temperature values were recorded at the time of MCA occlusion. […]
The rats were allowed to recover from surgery on a heating pad while containing to be under the influence of the pentobarbital anesthesia. Once animals were able to right themselves and begin spontaneous movement, they were placed in cages on the heating pads and monitored for any distress until fully recovered from anesthesia. […]

In assay [2] the test system is cerebellar granule neurones. The experiment in a line: Assay 3: intracellular cyclic AMP enzyme immunoassay. The class given is cell-based, rat. As to conditions: agonist 0 to 30 nM, 15 min, 0.5 mM IBMX. As for the experimental part:
Assay 3: The production of cAMP by the CRF receptor agonist peptides CRF, urotensin 1, urocortin and sauvagine was measured as follows. This assay can be used analogously for any putative CRF receptor agonists including non-peptide agonists.
Intracellular cyclic AMP was measured with a cAMP 2-site enzyme immunoassay system (trade mark BIOTRAK, commercially available from Amersham Pharmacia Biotech, PO Box 164, Rainham, Essex RM13 8JZ, United Kingdom, Amersham catalogue number RPN225), based upon the use of a sensitive and highly specific capture antibody for cyclic AMP:
Cerebellar granule neurones were seeded in polylysine-coated […] plates, 3.5×10^5 cells per 48-well, in Basal medium Eagle's containing 10% fetal calf serum, 25 mM KCl, and antibiotics. At 8-9 days in vitro, granule neurone cultures were shifted to serum-free plating medium (0.4 ml) with 0.5 mM IBMX (to inhibit the breakdown of cyclic AMP) for 15 min (37° C.). Wells then received 0.1 ml of test peptide (5× final concentration). Generally 1 μM is the preferable final concentration for a putative CRF agonist under test, though different (e.g. lower) concentrations can be used as shown for the peptide agonists in FIG. 3. Incubation was continued for 15 min. Test medium was removed and the plate placed on dry ice, and stored at −140° C. Cyclic AMP analysis was performed the following day.
Cells were then lysed with the reagent provided with the BIOTRAK kit. Intracellular content of cyclic AMP in the lysates was assayed following the manufacturer's instructions. A standard curve was constructed using the cyclic AMP calibration provided, with the quantity of bound cyclic AMP being inversely proportional to the amount of second (chromogenic) antibody bound to the reaction wells. The colour product was read with an ELISA plate reader, and was a function of the amount of cyclic AMP in the unknown sample.

Assay [3] relates to cerebellar granule neurones. Type of assay: cell-based, rat. As to conditions: 48 h, MTT, sham-treated = 100%. Here is the method: Cerebellar granule neurones were used in the examples to test neuroprotection by CRF receptor agonists. Cerebellar granule neurones (CGNs) undergo apoptosis during the first few weeks of postnatal life, and in culture require mildly depolarising concentrations of KCl (25 mM) for their survival and maturation (S. R: D'Mello et al., Proc. Natl. Acad. Sci. USA 90, 10989-10993, 1993). The growth signal provided by KCl depends upon activation of the phosphatidylinositol 3-kinase (PI 3-kinase) pathway, and pharmacological inhibition of PI 3-kinase in differentiated granule neurones leads to apoptotic death in the CGNs (T. M. Miller et al., J. Biol. Chem., 272, 9847-9853, 1997). Thus, cultured CGNs represent a suitable model to study mechanisms of programmed cell death, and to identify putative neuroprotective signalling pathways.
Assay 1: Cerebellar granule neurones prepared from postnatal day 8 Sprague Dawley rat pups were used for experiments on death induced by inhibition of PI 3-kinase. General culture methods are described in S. D. Skaper et al. in Methods in Neurosciences, Vol. 2 (Conn P. M., ed), pp. 17-33. Academic Press, San Diego, 1990. At 8-9 days in vitro (DIV), granule neurone cultures were shifted to phenol red-free Dulbecco's modified Eagle's medium lacking serum, and containing 0.05% bovine serum albumin and 25 mM KCl. Death was induced by addition of the PI 3-kinase inhibitor LY 294002 (75 μM). CRF or CRF agonist peptides (urotensin 1, urocortin, sauvagine) were added at different concentrations (from 0.3nM to 300 nM or 1000 nM) together with LY 294002. Forty-eight hours later neuronal survival was quantified by a colorimetric reaction MTT. Absolute MTT values obtained were normalised for small differences in interexperiment plating densities by scaling to the mean of sham-treated sister cultures (defined as 100%).
Results are shown in Table 1 below and in graphical form in FIG. 1, which show the percentage mean neuronal survival (and standard deviation), when in the presence of the relevant CRF receptor agonists and LY 294002, as a function of agonist concentration. […] Urotensin 1, urocortin and sauvagine were also neuroprotective albeit with lower potency (<1 μM).

In brackets after ≈: the same amount, converted by molar mass. Read-outs that look alike come from different tables or passages of the source.

In general, IC50 refers to the point on the concentration scale where inhibition reaches its midpoint.

As for `O=c1cc(N2CCOCC2)oc2c(-c3ccccc3)cccc12` [LY 294002, 2-(4-morpholinyl)-8-phenyl-4H-1-benzopyran-4-one], the “phospho-GSK-3β level compared to control CN” value in the assay on GSK-3β is recorded as “a decrease compared to control”. At PI 3-kinase, the IC50 was 1.4 µM and the “IC50 PI 3-kinase activity” value is 0.43 mg/L (≈ 1.4 µM).
For the compound “NDDPPISIDLTFHLLRNMIEMARIENEREQAGLNRKYLDEV [Urotensin 1, Urotensin 1 (teleost fish, Sigma cat. no. U-7253), CRF receptor agonist peptide]”, the infarct size in assay [1] is 70-80 mm^3. Further, the “numerical score for neurological deficits” value in assay [1] amounted to 9. For the same compound, the “cAMP synthesis induced by agonist (FIG. 3)” value in assay [2] was “cAMP production increased with agonist concentration”. Further, the Mean survival % was found to be 42% in assay [3] (agonist 0.3 nM with LY 294002 75 μM); 52.89% in assay [3] (agonist 1 nM with LY 294002 75 μM); 68% in assay [3] (agonist 3 nM with LY 294002 75 μM); 74.44% in assay [3] (agonist 10 nM with LY 294002 75 μM); 71.67% in assay [3] (agonist 30 nM with LY 294002 75 μM); 71.17% in assay [3] (agonist 100 nM with LY 294002 75 μM). Further, the Mean survival % in assay [3] (agonist 300 nM with LY 294002 75 μM) came to 73.83%; in assay [3] (agonist 1000 nM with LY 294002 75 μM) it was 79.17%.
